Test results as given in patent publication US12595247B2, “Substituted pyrazolo piperidine carboxylic acids” (Bayer Aktiengesellschaft, priority 2020, dated 2026).
Structures can show the parent of a compound that is named as a salt.

Tests used:
[1] = Pharmacokinetic parameters following intravenous and oral administration in dogs; assay type: in vivo, female beagles; details: for bioavailability: female, beagle, dog, plasma, read-out: F (bioavailability)
From the text: (§1) • Klaus Witte, Kai Hu, Johanna Swiatek, Claudia Müssig, Georg Ertl and Björn Lemmer: Experimental heart failure in rats: effects on cardiovascular circadian rhythms and on myocardial β-adrenergic signaling. Cardiovasc Res 47 (2): […], 2000; Kozo Okamoto: Spontaneous hypertension in rats. Int Rev Exp Pathol 7: 227-270, 1969; Maarten van den Buuse: Circadian Rhythms of Blood Pressure, Heart Rate, and Locomotor Activity in Spontaneously Hypertensive Rats as Measured With Radio-Telemetry. Physiology & Behavior 55(4): 783-787, 1994. B-5. Determination of Pharmacokinetic Parameters Following Intravenous and Oral Administration
(§2) The pharmacokinetic parameters of the compounds according to the invention were determined in male Wistar rats and/or in female beagles and/or in cynomolgus monkeys and/or in male CD-1 mice. Intravenous administration in the case of mice and rats was carried out by means of a species-specific plasma/DMSO formulation, and in the case of dogs and monkeys by means of a water/PEG400/ethanol formulation. In all species, oral administration of the dissolved substance was performed via gavage, based on a water/PEG400/ethanol formulation.
(§3) An internal standard (which may also be a chemically unrelated substance) was added to the samples of the compounds of the invention, calibration samples and qualifiers, and there followed protein precipitation by means of acetonitrile in excess. Addition of a buffer solution matched to the LC conditions, and subsequent vortexing, was followed by centrifugation at 1000 g. The supernatant was analysed by LC-MS/MS using C18 reversed-phase columns and variable mobile phase mixtures. The substances were quantified via the peak heights or areas from extracted ion chromatograms of specific selected ion monitoring experiments.
(§4) The plasma concentration/time plots determined were used to calculate the pharmacokinetic parameters such as AUC, Cmax, t1/2 (terminal half-life), F (bioavailability), MRT (mean residence time) and CL (clearance), by means of a validated pharmacokinetic calculation program.
(§5) Since the substance quantification was performed in plasma, it was necessary to determine the blood/plasma distribution of the substance in order to be able to adjust the pharmacokinetic parameters correspondingly.
(§6) For this purpose, a defined amount of substance was incubated in K3 EDTA whole blood of the species in question in a rocking roller mixer for 20 min. After centrifugation at 1000 g, the plasma concentration was measured (by means of LC-MS/MS; see above) and determined by calculating the ratio of the Cblood/Cplasma value.

[2] = Pharmacokinetic parameters following intravenous and oral administration in rats; assay type: in vivo, male Wistar rats
From the text: as §1, §2, §3, §4, §5, §6

[3] = target: T1, recombinant guanylate cyclase reporter cell line (Rattus norvegicus, UniProt P20595); assay: Effect on a recombinant guanylate cyclase reporter cell line; assay type: cell-based; details: for EC50: read-out: EC50 (half maximal effective concentration)
T1 construct: expressed in transfected cells; host or cells: recombinant reporter cell line
T1 sequence (P20595 1-619): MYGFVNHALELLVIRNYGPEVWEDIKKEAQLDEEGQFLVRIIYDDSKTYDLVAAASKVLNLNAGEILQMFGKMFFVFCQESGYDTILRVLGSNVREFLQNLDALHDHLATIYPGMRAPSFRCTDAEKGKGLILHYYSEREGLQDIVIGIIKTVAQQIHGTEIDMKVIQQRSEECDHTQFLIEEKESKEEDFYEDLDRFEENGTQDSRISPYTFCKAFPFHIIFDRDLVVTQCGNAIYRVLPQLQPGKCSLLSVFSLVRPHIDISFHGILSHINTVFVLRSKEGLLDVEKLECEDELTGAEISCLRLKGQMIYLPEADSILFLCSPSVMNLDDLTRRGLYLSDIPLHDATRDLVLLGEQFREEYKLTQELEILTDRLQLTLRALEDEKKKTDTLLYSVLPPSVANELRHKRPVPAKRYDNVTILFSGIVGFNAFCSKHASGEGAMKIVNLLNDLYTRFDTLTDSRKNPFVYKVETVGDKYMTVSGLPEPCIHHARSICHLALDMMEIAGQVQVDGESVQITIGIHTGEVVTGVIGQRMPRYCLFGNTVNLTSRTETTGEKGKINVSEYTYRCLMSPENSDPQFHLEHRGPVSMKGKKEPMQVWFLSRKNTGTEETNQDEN
T1 sequence (P19686 1-690 partner): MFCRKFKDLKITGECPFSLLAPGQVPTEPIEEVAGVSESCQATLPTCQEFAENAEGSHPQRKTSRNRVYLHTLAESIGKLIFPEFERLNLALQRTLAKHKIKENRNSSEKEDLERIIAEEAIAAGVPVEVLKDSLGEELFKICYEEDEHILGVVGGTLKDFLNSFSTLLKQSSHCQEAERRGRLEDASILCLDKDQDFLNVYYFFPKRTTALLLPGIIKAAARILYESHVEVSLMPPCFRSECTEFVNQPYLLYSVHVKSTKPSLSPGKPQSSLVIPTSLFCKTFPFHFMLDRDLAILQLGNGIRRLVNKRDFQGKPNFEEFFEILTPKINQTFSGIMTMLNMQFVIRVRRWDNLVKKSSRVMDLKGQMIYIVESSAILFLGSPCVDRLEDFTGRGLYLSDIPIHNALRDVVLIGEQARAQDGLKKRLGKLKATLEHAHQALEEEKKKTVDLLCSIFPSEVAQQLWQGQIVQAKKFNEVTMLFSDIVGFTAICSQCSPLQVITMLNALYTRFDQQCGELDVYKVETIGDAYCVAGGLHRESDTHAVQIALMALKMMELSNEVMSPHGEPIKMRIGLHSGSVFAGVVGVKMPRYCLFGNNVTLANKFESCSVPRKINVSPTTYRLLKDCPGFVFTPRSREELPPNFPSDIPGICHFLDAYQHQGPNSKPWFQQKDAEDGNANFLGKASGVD
Procedure: B-1. Effect on a Recombinant Guanylate Cyclase Reporter Cell Line
The cellular activity of the compounds according to the invention was determined using a recombinant guanylate cyclase reporter cell line, as described in F. Wunder et al., Anal. Biochem. 339, 104-112 (2005).

[4] = rats, intravenous administration
[5] = rats, oral administration (p.o.)

| bioavailability ([1]; oral administration (p.o.)) | AUCnorm ([1]; intravenous administration) | AUCnorm ([1]; oral administration (p.o.)) | bioavailability ([2]; male, Wistar, rat, plasma, po, rats, oral administration (p.o.), read-out: F (bioavailability)) | AUCnorm [2, 4] | AUCnorm [2, 5] | F (bioavailability) [2, 5] | MEC (minimum effective concentration) [3] | lower plasma clearance (CLplasma) in comparison to example 174 in WO 2012/058132 ([2]; in rats as well as in dogs) | EC50 [3] | Compound |
| --- | --- | --- | --- | --- | --- | --- | --- | --- | --- | --- |
| 41.6% | 5.00 kg·h/L | 2.08 kg·h/L | 81.8% | 0.77 kg·h/L | 0.63 kg·h/L | – | – | – | – | O=C(O)c1cnn(-c2cccc(-c3cc(Cl)ccc3-c3ccc(N4CCN(CC5CC5)CC4)cc3)n2)c1C(F)(F)F [174 (WO2012/058132), reference compound] |
| – | – | – | – | 1.77 kg·h/L | 0.57 kg·h/L | 31.4% | 2.3 nM | – | – | CC(C)CN1CCN(c2ccc(-c3ccc(Cl)cc3N3CCCC(n4ncc(C(=O)O)c4C(F)F)C3)cc2)CC1 (single isomer, unassigned; enantiomer 1) [Example 1, 1-[1-{4-Chloro-4′-[4-(2-methylpropyl)piperazin-1-yl][1,1′-biphenyl]-2-yl}piperidin-3-yl]-5-(difluoromethyl)-1H-pyrazole-4-carboxylic acid hydrochloride (Enantiomer 1)] |
| 82.8% | 81.7 kg·h/L | 67.7 kg·h/L | – | 7.08 kg·h/L | 3.77 kg·h/L | 53.3% | 1.0 nM | up to 10 times | 8.6 nM | CC(C)CN1CCN(c2ccc(-c3ccc(Cl)cc3N3CCCC(n4ncc(C(=O)O)c4C(F)F)C3)cc2)CC1 (single isomer, unassigned; enantiomer 2) [Example 2, 1-[1-{4-Chloro-4′-[4-(2-methylpropyl)piperazin-1-yl][1,1′-biphenyl]-2-yl}piperidin-3-yl]-5-(difluoromethyl)-1H-pyrazole-4-carboxylic acid (Enantiomer 2)] |
| – | – | – | – | – | – | – | 0.6 nM | – | 2.7 nM | CC(C)CN1CCN(c2ccc(-c3ccc(Cl)cc3N3CCCC(n4ncc(C(=O)O)c4C(F)F)C3)cc2)CC1 (single isomer, unassigned; enantiomer 2) [Example 3, 1-{1-[4-Chloro-4′-(4-isobutylpiperazin-1-yl)[biphenyl]-2-yl]piperidin-3-yl}-5-(difluoromethyl)-1H-pyrazole-4-carboxylic acid hydrochloride (Enantiomer 2)] |
